Measurements as given in paper PMC5066289, “Pharmacokinetics of anidulafungin during venovenous extracorporeal membrane oxygenation” (Critical Care, 2016).
“Also recorded” adds a separate entry of the source. Numbered stars: 1 amine (or outer) side, 2 acyl side, 3 side chain; on linkers, the order of the positions; unused ones are H or OH. Bridge positions count the residues as written; N and C are the ends. Square brackets hold non-standard residues; d marks the D form. Peptide text beside a SMILES is read from it. * marks the point of attachment. pTerphenylCO(4''-OnC5H11) = CCCCCOc1ccc(-c2ccc(-c3ccc(C(=O)*)cc3)cc2)cc1; Orn(4R-OH,5R-OH) = O=C([C@H](C[C@@H](O)[C@@H](O)N[*:3])N[*:1])[*:2]; hTyr(3S-OH,4S-OH) = N[C@H](C(=O)O)[C@H](O)[C@@H](O)c1ccc(O)cc1; Pro(3S-OH,4S-Me) = C[C@H]1CN[C@H](C(=O)O)[C@H]1O; Hyp = O=C(O)[C@@H]1C[C@@H](O)CN1

Experiments:
[1] = Non-compartmental pharmacokinetics of anidulafungin in a critically ill patient on venovenous ECMO (plasma and urine, HPLC); format: in vivo, human
Excerpt: Echinocandins are currently considered the first-line treatment for invasive candidiasis (IC) in the intensive care unit (ICU). However, extracorporeal membrane oxygenation (ECMO), a rescue therapy used in patients with severe acute respiratory distress syndrome (ARDS), could alter the pharmacokinetics of certain drugs. We prescribed anidulafungin for suspected IC in a patient with severe ARDS on ECMO and measured the plasma concentrations of the drug using high-performance liquid chromatography (HPLC).
(§1) A patient was admitted to the ICU with septic shock secondary to peritonitis. The anti-infective treatment was based on surgical source control and broad spectrum antimicrobial therapy, including anidulafungin at usual doses. The patient developed severe ARDS. ECMO with Novalung iLA Activve™ was initiated, maintaining ultraprotective ventilation. Femoral (23 F) and jugular (19 F) cannulas (Novalung™, Germany) were inserted with 4.5 L/min blood flow and 4 L/min gas flow. Urine samples and pre-filter and post-filter blood samples were collected before starting the eight-dose anidulafungin infusion and 0.5, 1, 1.5, 2, 4, 6, 8, and 24 h after the infusion ended.
A non-compartmental pharmacokinetic analysis was performed using Abbottbase Pharmacokinetic Systems™ (Abbott Laboratories, Illinois, USA). The maximum and trough plasma concentrations (Cmax and Cmin, respectively) were estimated directly from concentration-time data. The area under the plasma concentration-time curve over the 24-h dosing interval (AUC0–24) was estimated using the linear trapezoidal rule for both pre-filter and post-filter data. Clearance (CL) was estimated as dose/AUC0–24. The apparent volume of distribution at steady state (Vss) was estimated as the product of CL and mean residence time (MRT).

[2] = Tolerability of anidulafungin in the patient on ECMO; format: in vivo, human; settings: single critically ill patient on venovenous ECMO; usual doses
Excerpt: as §1

CCCCCOc1ccc(-c2ccc(-c3ccc(C(=O)N[C@H]4C[C@@H](O)[C@@H](O)NC(=O)[C@@H]5[C@@H](O)[C@@H](C)CN5C(=O)[C@H]([C@@H](C)O)NC(=O)[C@H]([C@H](O)[C@@H](O)c5ccc(O)cc5)NC(=O)[C@@H]5C[C@@H](O)CN5C(=O)[C@H]([C@@H](C)O)NC4=O)cc3)cc2)cc1 [anidulafungin] ({pTerphenylCO(4''-OnC5H11)}-[Orn(4R-OH,5R-OH)]T[Hyp][hTyr(3S-OH,4S-OH)]T[Pro(3S-OH,4S-Me)]; lactam 1-C)
Clearance (CL) ([1]; single patient on venovenous ECMO, non-compartmental, dose/AUC0-24): 0.933 L/h
Apparent volume of distribution at steady state (Vss) ([1]; single patient on venovenous ECMO, non-compartmental, product of CL and MRT): 18.9 L
Urine anidulafungin concentrations ([1]; single patient on venovenous ECMO, urine samples over 24 h, HPLC, limit of detection 0.05 mg/L): negligible; also recorded: very low and close to the limit of detection
Trough plasma concentration (Cmin) ([1]; single patient on venovenous ECMO, usual doses, eighth dose, plasma, HPLC, estimated directly from concentration-time data): 2.19 µg/mL
Maximum plasma concentration (Cmax) ([1]; single patient with severe ARDS on venovenous ECMO, anidulafungin infusion at usual doses, sampled around the eighth dose, plasma, HPLC, estimated directly from concentration-time data): 13.5 µg/mL
Tolerability / adverse effects [2]: well tolerated without relevant adverse effects
